Laboratory results published in patent US20030018061A1, “Novel remedies with the use of beta 3 agonist” (priority 2000, published 2003).

Columns and labels:
[1] = system: human urinary bladder compression muscle; test: Relaxation of carbachol-contracted human urinary bladder compression muscle; format: cell-based; conditions: for relaxation of bladder compression muscle, combination with propiverine: 10^−6 M propiverine plus compound (a, b, f, g 10^−9 M; c, d 10^−10 M; e, h, i 10^−8 M); for relaxation of bladder compression muscle, combination with propiverine / relaxation of bladder compression muscle, combination with oxybutynin / relaxation of bladder compression muscle, combination with tolterodine: in comparison with each compound alone; for relaxation of bladder compression muscle, combination with oxybutynin: 10^−9 M oxybutynin plus compound (a, b, f, g 10^−9 M; c 10^−10 M; e, h, i 10^−8 M); for relaxation of bladder compression muscle, combination with tolterodine: 10^−9 M tolterodine plus compound (a, b, f, g 10^−9 M; d 10^−10 M; e, h, i 10^−8 M); for concentration at which the bladder compression muscle was significantly relaxed / concentration at which the muscle was not relaxed significantly: contraction provoked by carbachol (0.5×10^−6 M), each compound alone
[2] = system: Mice induced with obesity by feeding with a high fat diet; test: Antiobestic effect (I): body weight of high fat diet obese mice, sibutramine and β3 agonist; format: in vivo; conditions: oral, 2 weeks; SIB 1 mg/kg; compound c, d 0.3 mg/kg; e, g 3 mg/kg; h, i 1 mg/kg; alone or combined at same doses
Protocol: (§1) Mice induced with obesity by feeding with a high fat diet for 2 months were orally administered with sibutramine (SIB: 1 mg/kg), a β3 agonist (compound c: 0.3 mg/kg; compound d: 0.3 mg/kg; compound e: 3 mg/kg; compound g: 3 mg/kg; compound h: 1 mg/kg; compound i: 1 mg/kg), or SIB and a β3 agonist (compound c, compound d, compound e, compound g, compound h, and compound i) in combination (each dosage was the same as the aforementioned) for 2 weeks and bred, and body weight was measured.

[3] = system: Mice induced with obesity by feeding with a high fat diet; test: Antiobestic effect (II): body weight of high fat diet obese mice, orlistat and β3 agonist; format: in vivo; conditions: oral, 2 weeks; orlistat 1 mg/kg; compound c, d 0.3 mg/kg; e, g 3 mg/kg; h, i 1 mg/kg; alone or combined at same doses
Protocol: as §1, with “orlistat (1” for “sibutramine (SIB: 1”, “orlistat” for “SIB”

[4] = system: Mice; test: Antidiabetic effect: plasma glucose in mice, insulin and β3 agonist; format: in vivo; conditions: 30 min after dosing; INS 0.2 U/kg intraperitoneal; oral compound a 10 mg/kg; c, d 0.3 mg/kg; e, g 3 mg/kg; h, i 1 mg/kg; alone or combined
Protocol: Mice were administered with insulin (INS: 0.2 U/kg, intraperitoneal injection), a β3 agonist (oral administration of compound a: 10 mg/kg; compound c: 0.3 mg/kg; compound d: 0.3 mg/kg; compound e: 3 mg/kg; compound g: 3 mg/kg; compound h: 1 mg/kg; compound i: 1 mg/kg, respectively), or INS and a β3 agonist (compound a, compound c, compound d, compound e, compound g, compound h, and compound i) in combination (each dosage and administration route was the same as the aforementioned), blood was collected after 30 min, and the amount of glucose contained in blood plasma was measured.

[5] = system: Mice fasted overnight, glucose loaded; test: Antidiabetic effect (II): plasma glucose after glucose loading in fasted mice, glibenclamide and β3 agonist; format: in vivo; conditions: 1 hour after glucose load (1 g/kg s.c.), oral GLI 10 mg/kg, compound a 10 mg/kg, d 0.3 mg/kg, e, g 3 mg/kg, i 1 mg/kg, vs glucose loading only
Protocol: Mice fasted overnight were orally administered with glibenclamide (GLI: 10 mg/kg), a β3 agonist (compound a: 10 mg/kg; compound c: 0.3 mg/kg; compound d: 0.3 mg/kg; compound e: 3 mg/kg; compound g: 3 mg/kg; compound h: 1 mg/kg; compound i: 1 mg/kg), or GLI and a β3 agonist (compound a, compound c, compound d, compound e, compound g, compound h, and compound i) in combination (each dosage was the same as the aforementioned), and immediately glucose (1 g/kg, subcutaneous injection) was loaded. Blood was collected after 1 hour, and the amount of glucose contained in blood plasma was measured.
In this combined use, hypoglycemia, which is a side effect of glibenclamide, was not observed.

[6] = system: Genetically diabetic mice; test: Antidiabetic effect (III): genetically diabetic mice, rosiglitazone and β3 agonist; format: in vivo; conditions: oral, 2 weeks; ROS 1 mg/kg; compound c, d 0.3 mg/kg; e, g 3 mg/kg; h, i 1 mg/kg; alone or combined
Protocol: Genetically diabetic mice were orally administered with rosiglitazone (ROS: 1 mg/kg), a β3 agonist (compound c: 0.3 mg/kg; compound d: 0.3 mg/kg; compound e: 3 mg/kg; compound g: 3 mg/kg; compound h: 1 mg/kg; compound i: 1 mg/kg), or ROS and a β3 agonist (compound c, compound d, compound e, compound g, compound h, and compound i) in combination (each dosage was the same as the aforementioned) for 2 weeks. Blood was collected thereafter, and the amount of glucose contained in blood plasma was measured.

[7] = system: Genetically diabetic mice; test: Antidiabetic effect (IV): genetically diabetic mice, acarbose and β3 agonist; format: in vivo; conditions: oral, 2 weeks; ACA 1 mg/kg; compound c, d 0.3 mg/kg; e, g 3 mg/kg; h, i 1 mg/kg; alone or combined
Protocol: Genetically diabetic mice were orally administered with acarbose (ACA: 1 mg/kg), a β3 agonist (compound c: 0.3 mg/kg; compound d: 0.3 mg/kg; compound e: 3 mg/kg; compound g: 3 mg/kg; compound h: 1 mg/kg; compound i: 1 mg/kg), or ACA and a β3 agonist (compound c, compound d, compound e, compound g, compound h, and compound i) in combination (each dosage was the same as the aforementioned) for 2 weeks. Blood was collected thereafter, and the amount of glucose contained in blood plasma was measured.

[8] = system: Mice; test: Antilipemic effect (II): plasma triglyceride in mice, bezafibrate and β3 agonist; format: in vivo; conditions: oral, 2 weeks; administered solely: BEZ 3 mg/kg; compound c, d 0.3 mg/kg; e, g 3 mg/kg; h, i 1 mg/kg
Protocol: Mice were orally administered with bezafibrate (BEZ: 3 mg/kg), a β3 agonist (compound c: 0.3 mg/kg; compound d: 0.3 mg/kg; compound e: 3 mg/kg; compound g: 3 mg/kg; compound h: 1 mg/kg; compound i: 1 mg/kg), or BEZ and a β3 agonist (compound c, compound d, compound e, compound g, compound h, and compound i) in combination (each dosage was the same as the aforementioned) for 2 weeks. Blood was collected thereafter, and the amount of triglyceride contained in blood plasma was measured.

Row | Compound | relaxation of bladder compression muscle, combination with propiverine [1] | relaxation of bladder compression muscle, combination with oxybutynin [1] | relaxation of bladder compression muscle, combination with tolterodine [1] | concentration at which the bladder compression muscle was significantly relaxed [1] | concentration at which the muscle was not relaxed significantly [1] | body weight [2] | body weight [3] | blood glucose level (glucose in blood plasma) [4] | blood glucose level (glucose in blood plasma) [5] | blood glucose level (glucose in blood plasma) [6] | blood glucose level (glucose in blood plasma) [7] | plasma triglyceride level [8]
1 | CS(=O)(=O)Nc1cccc([C@@H](O)CNCCOc2ccc3c(c2)[nH]c2ccccc23)c1 [compound e, (R)-N-[3-[2-[2-(9H-carbazole-2-iloxy)ethylamino]-1-hydroxyethyl]phenyl]methanesulfonamide] | relaxed significantly | relaxed significantly | relaxed significantly | 10^−6 M | 10^−8 M | almost no change in body weight | almost no change in body weight | no change in blood glucose level | almost no difference in the blood glucose level | no difference in the blood glucose level | no difference | no difference
2 | CS(=O)(=O)Nc1cc([C@@H](O)CNCCOc2ccc3c4c([nH]c3c2)CCCC4)ccc1O [compound b, (R)-N-[5-[2-[2-(5,6,7,8-tetrahydro-9H-carbazole-2-iloxy)ethylamino]-1-hydroxyethyl]-2-hydroxyphenyl]methanesulfonamide] | relaxed significantly | relaxed significantly | relaxed significantly | 10^−7 M | 10^−9 M |  |  |  |  |  |  | 
3 | CN(C)S(=O)(=O)Nc1cc([C@@H](O)CNCCOc2ccc3c(c2)[nH]c2ccccc23)ccc1O [compound f, (R)-N′-[5-[2-[2-(9H-carbazole-2-iloxy)ethylamino]-1-hydroxyethyl]-2-hydroxyphenyl]-N,N-dimethyl sulfonyl amide] | relaxed significantly | relaxed significantly | relaxed significantly | 10^−7 M | 10^−9 M |  |  |  |  |  |  | 
4 | CN(C)S(=O)(=O)Nc1cc([C@@H](O)CNCCOc2ccc3c(c2)oc2ccccc23)ccc1O [compound g, (R)-N′-[5-[2-[2-(dibenzofuran-3-iloxy)ethylamino]-1-hydroxyethyl]-2-hydroxyphenyl]-N,N-dimethyl sulfonyl amide] | relaxed significantly | relaxed significantly | relaxed significantly | 10^−7 M | 10^−9 M | almost no change in body weight | almost no change in body weight | no change in blood glucose level | almost no difference in the blood glucose level | no difference in the blood glucose level | no difference | no difference
5 | CS(=O)(=O)Nc1cc([C@@H](O)CNCCOc2ccc3c(c2)[nH]c2ccccc23)ccc1O [compound d, (R)-N-[5-[2-[2-(9H-carbazole-2-iloxy)ethylamino]-1-hydroxyethyl]-2-hydroxyphenyl]methanesulfonamide] | relaxed significantly | relaxed significantly | relaxed significantly | 10^−8 M | 10^−10 M | almost no change in body weight | almost no change in body weight | no change in blood glucose level | almost no difference in the blood glucose level | no difference in the blood glucose level | no difference | no difference
6 | CC(C)CC(N(C)C)C1(c2ccc(Cl)cc2)CCC1 (stereo not drawn) [SIB, sibutramine, reference compound] |  |  |  |  |  | almost no change in body weight |  |  |  |  |  | 
7 | CS(=O)(=O)Nc1cccc([C@@H](O)CNCCOc2ccc3c(c2)[nH]c2cc(O)ccc23)c1 [compound a, (R)-N-[3-[2-[2-(7-hydroxy-9H-carbazole-2-iloxy)ethylamino]-1-hydroxyethyl]phenyl]methanesulfonamide] | relaxed significantly | relaxed significantly | relaxed significantly | 10^−7 M | 10^−9 M |  |  | no change in blood glucose level | almost no difference in the blood glucose level |  |  | 
8 | CCCCCCCCCCC[C@@H](C[C@@H]1OC(=O)[C@H]1CCCCCC)OC(=O)[C@H](CC(C)C)NC=O [orlistat, reference compound] |  |  |  |  |  |  | almost no change in body weight |  |  |  |  | 
9 | insulin [reference compound] |  |  |  |  |  |  |  | no change in blood glucose level |  |  |  | 
10 | COc1ccc(Cl)cc1C(=O)NCCc1ccc(S(=O)(=O)NC(=O)NC2CCCCC2)cc1 [GLI, glibenclamide, reference compound] |  |  |  |  |  |  |  |  | almost no difference in the blood glucose level |  |  | 
